Assay results reported in patent US8987217B2, “Modified saponins for the treatment of fungal infections” (The General Hospital Corporation, priority 2010, dated 2015).
≈ marks a conversion by molar mass, not a printed value.

Assays:
C. albicans = experiment: C. elegans-C. albicans co-inoculation assay, nematode survival; format: in vivo
Procedure: (§1) The procedure for the co-inoculation antifungal compound screen were conducted as previously described (Okoli et al., PLoS ONE, 4:e7025 (2009); Tampakakis et al., Nat Protocols, 3:1925-1931 (2008)), using the C. albicans strain DAY185 (Davis et al., Infect Immun, 68:5953-5959 (2000)) and the C. elegans glp-4;sek-1 double mutant.
(§2) This assay allows simultaneous assessment of a compound's potential toxicity and the ability to promote the survival of the nematode in the presence of C. albicans, including modes of action not traditionally considered in antifungal assays such as impeding a fungal virulence factor or promoting host immune response. We performed a screen of 2,560 natural products representing a fraction of the Analyiticon Discovery compound collection (ac-discovery.com) housed at the Broad Institute of Harvard and MIT (Cambridge, Mass.). […] These natural products identified in the primary screen were retested and confirmed (FIG. 1; Table 1). […] Moreover, although the antifungal effects of some of these saponins have been reported (Sata et al., Biosci Biotechnol Biochem, 62:1904-1911 (1998); Ohtani et al., Phytochem, 33:83-86 (1993)), their efficacy against Candida spp. has not been studied.
After confirmation of these hits, dose response experiments were conducted to determine the concentration that provided maximum nematode survival. The compounds conferred a range of nematode survival from 27% (compound A6) to 93% (compounds A2, A7, A24, and A25), however, with the exception of A6, all compounds conferred a nematode survival over 65% (FIG. 1).

C. albicans biofilm = experiment: biofilm formation on silicone pads (dry mass); format: cell-based; settings: 20 μg/mL (below the MIC), compared with caspofungin
Procedure: The minimal inhibitory concentration (MIC) was determined for strains DAY185, 98-145, 95-120 (White et al., Antimicrob Agents Chemother, 46:1704-1713 (2002)), and A15-10 (Garcia-Effron et al., Antimicrob Agents Chemother, 53:112-122 (2009)) spectrophotometrically using RPMI 1640 media (Mediatech, Inc.) following the standard CLSI microdilution protocol M27-A (National Committee for Clinical Laboratory Standards, Reference method for broth dilution susceptibility testing of yeasts. Tentative standard M27-A, Villanova, Pa. (1995)). Biofilm assays using identified compounds were conducted as previously described (Richard et al., Eukaryot Cell, 4:1493-1502 (2005)). The biofilm dry mass was determined by drying the silicone squares in a chemical hood, and weighing the resulting biofilm mass subtracting the previously weighed mass of the silicone square. […]
Caspofungin (Merck) served as a known antifungal compound control. In vitro hyphal inhibition was assessed by incubation of DAY185 in RPMI 1640 media at 37° C. […] The ability of the antifungal compound A16, at either 2 or 4 μg/mL, to induce osmotic stress was assessed using DAY185 grown in a 96 well microtiter plate containing RPMI 1640 media and NaCl, ranging in concentrations from 0-2 M in 0.25 M increments. The growth of the fungus was measured spectrophotometrically after 48 hours of growth at 35° C.

sheep erythrocytes = experiment: hemolysis of sheep erythrocytes; format: cell-based; settings: 100 μg/mL
Procedure: The cytotoxicity for the identified compounds was confirmed as previously described (Breger et al., PLoS Pathog, 3:e18 (2007); Moy et al., Proc Natl Acad Sci USA, 103:10414-10419 (2006)). Hemolysis of sheep erythrocytes (Rockland Immunochemicals) was monitored on a spectrophotometer at A540 with the two natural products A16 and A19 (100 μg/mL) in 2% DMSO. Triton X-100 and DMSO were used as controls.

[1] = tested on: C. albicans strain DAY185; experiment: in vitro antifungal activity (MIC) in the co-inoculation assay, turbidity read visually; format: cell-based
Procedure: as §1
The determination of the lowest concentration of the selected compounds showing in vitro antifungal activity was accomplished by following the steps detailed in the co-inoculation assay, using two-fold serial dilutions of the test compounds.

C. elegans = experiment: toxicity to the nematode in dose response experiments; settings: dose response experiments, higher concentrations
From the text: as §2
Representatives of the saponins family are able to disrupt cellular membranes and the lytic activity on erythrocytes has been used as an assay for some saponins Francis et al., British Journal of Nutrition, 88:587-605 (2002)). This property is derived from the affinity of some saponins for binding cholesterol forming insoluble pores composed of the sterol and saponins (Bangham et al., Nature, 196:952-953(1962); Glauert et al., Nature, 196:953-955 (1962)). […] The dose-response experiments previously used to determine the EC50 and approximate the MIC can also indicate if the saponins maybe toxic to C. elegans and potentially to mammalian cells.

C. albicans strains = experiment: MIC by standard CLSI microdilution protocol M27-A; format: cell-based
Procedure: Using the standard Clinical and Laboratory Standards Institute (CLSI) procedure, the in vitro MIC of these two compounds was determined on the following C. albicans strains: DAY185 (the standard strain used throughout the screen), two fluconazole-resistant strains of C. albicans, and an echinocandin-resistant strain of C. albicans (Table 2).
The minimal inhibitory concentration (MIC) was determined for strains DAY185, 98-145, 95-120 (White et al., Antimicrob Agents Chemother, 46:1704-1713 (2002)), and A15-10 (Garcia-Effron et al., Antimicrob Agents Chemother, 53:112-122 (2009)) spectrophotometrically using RPMI 1640 media (Mediatech, Inc.) following the standard CLSI microdilution protocol M27-A (National Committee for Clinical Laboratory Standards, Reference method for broth dilution susceptibility testing of yeasts. Tentative standard M27-A, Villanova, Pa. (1995)). Biofilm assays using identified compounds were conducted as previously described (Richard et al., Eukaryot Cell, 4:1493-1502 (2005)). The biofilm dry mass was determined by drying the silicone squares in a chemical hood, and weighing the resulting biofilm mass subtracting the previously weighed mass of the silicone square. Biofilm pictures were captured using a confocal laser microscope (TCS NT, Leica Microsystems). Cells were grown at 30° C., exposed to PS for 30 min, and then washed with PBS.

Question: For `C/C=C(/C)C(=O)O[C@H]1CC(C)(C)C[C@H]2C3=CCC4[C@@]5(C)CC[C@H](O[C@@H]6O[C@H](C(=O)O)[C@@H](O[C@@H]7O[C@H](CO)[C@H](O)[C@H](O)[C@H]7O[C@@H]7O[C@H](CO)[C@@H](O)[C@H](O)[C@H]7O)[C@H](O)[C@H]6OC6O[C@@H](C)[C@H](O)[C@@H](O)[C@H]6O)C(C)(C)C5CC[C@@]4(C)[C@]3(C)C[C@@H](O)[C@@]12CO` (some centres unmarked) [A19], which maximum nematode survival (C. albicans; dose response, C. albicans-infected C. elegans) is on record?
Answer: 80%

Question: And the EC50 in vivo (C. albicans; dose that resulted in 50% survival of C. albicans-infected nematodes)?
Answer: 26.5 µg/mL (≈ 22 µM)

Question: And the biofilm formation (C. albicans biofilm)?
Answer: able to inhibit biofilm formation

Question: And the hemolytic activity (sheep erythrocytes)?
Answer: no hemolytic activity

Question: What about the MIC in vitro ([1]; co-inoculation assay, two-fold serial dilutions, C. albicans DAY185) of the same compound?
Answer: 26.5 µg/mL (≈ 22 µM)

Question: And the “in vitro growth of C. albicans” value ([1]; screen / dose response)?
Answer: completely inhibited

Question: What about the “toxicity to the nematode” value (C. elegans) of the same compound?
Answer: none of the concentrations used in the dose response experiment showed signs of toxicity

Question: And the MIC (C. albicans strains; C. albicans DAY185)?
Answer: 32 µg/mL (≈ 26.6 µM)

Question: And the MIC (C. albicans strains; echinocandin-resistant strain A15)?
Answer: 16 µg/mL (≈ 13.3 µM)

Question: And the MIC (C. albicans strains; fluconazole-resistant strain 95-120)?
Answer: 32 µg/mL (≈ 26.6 µM)

Question: What about the MIC (C. albicans strains; fluconazole-resistant strain 98-145) of the same compound?
Answer: 32 µg/mL (≈ 26.6 µM)
